Results reported in US20050065071A1, “Cyclic analogs of human parathyroid hormone for the treatment of conditions characterized by hyperproliferative skin cells” (National Research Council of Canada, priority 2003, published 2005).
Bridges are numbered along the chain shown (N, C = ends). Where no end group is shown, it is not given here.

System: skin cells
Test: Topical administration to SKH-1 hairless mice, skin cell proliferation by ^3H-thymidine incorporation
Format: in vivo
Details: 1 μg, 10 μg or 50 μg once a day, 7 days, analog given with Novasome, compared with hPTH-(1-34) and untreated control (FIG. 6)
Method: FIG. 6 is a histogram showing the effects of no treatment (Control) or of topical administration of 1 μg, 10 μg, or 50 μg of hPTH-(1-34) (1-34) or [Leu^27]cyclo(Glu^22-Lys^26)-hPTH-(1-31)-NH2 (c1-c31) to SKH-1 mice on the proliferation of skin cells, as measured by ^3H-thymidine incorporation (counts per minute/μg protein) in SKH-1 mice after 7 days of administration.
SKH-1 hairless mice were administered the human parathyroid hormone hPTH analog [Leu^27]cyclo(Glu^22-Lys^26)-hPTH-(1-31)-NH2 with Novasome (a liposomal formulation available, for example, from IGI, Inc., Buena, N.J.) or hPTH-(1-34) at dosages of 1 μg, 10 μg, or 50 μg once a day, or were left untreated (control). On day 7, the mice were injected twice with ^3H-thymidine, and on day 8, the mice were injected with ^3H-thymidine and bromodeoxyuridine (1.5 mg/mouse) and sacrificed within 3 hours. ^3H-thymidine incorporation was then assessed, using standard methods. The results of this study are shown in FIG. 6, which is a histogram showing the effects of no treatment (Control) or of topical administration of 1 μg, 10 μg, or 50 μg of hPTH-(1-34) (1-34) or [Leu^27]cyclo(Glu^22-Lys^26)-hPTH-(1-31)-NH2 (c1-c31) on proliferation of skin cells, as measured by ^3H-thymidine incorporation (counts per minute/μg protein) in SKH-1 mice. […]

Substance | proliferation of skin cells, as measured by ^3H-thymidine incorporation
cyclo(Lys^26-Asp^30) [Leu^27]-hPTH-(1-31)-NH2 | Decreases Skin Cell Proliferation
[Leu^27]cyclo(Glu^22-Lys^26)-hPTH-(1-31)-NH2 (SVSEIQLMHNLGKHLNSMERVEWLRKLLQDV-NH2; lactam 22-26; N-terminus assumed; SMILES CC[C@H](C)[C@H](NC(=O)[C@H](CCC(=O)O)NC(=O)[C@H](CO)NC(=O)[C@@H](NC(=O)[C@@H](N)CO)C(C)C)C(=O)N[C@@H](CCC(N)=O)C(=O)N[C@@H](CC(C)C)C(=O)N[C@@H](CCSC)C(=O)N[C@@H](Cc1c[nH]cn1)C(=O)N[C@@H](CC(N)=O)C(=O)N[C@@H](CC(C)C)C(=O)NCC(=O)N[C@@H](CCCCN)C(=O)N[C@@H](Cc1c[nH]cn1)C(=O)N[C@@H](CC(C)C)C(=O)N[C@@H](CC(N)=O)C(=O)N[C@@H](CO)C(=O)N[C@@H](CCSC)C(=O)N[C@@H](CCC(=O)O)C(=O)N[C@@H](CCCNC(=N)N)C(=O)N[C@H](C(=O)N[C@H]1CCC(=O)NCCCC[C@@H](C(=O)N[C@@H](CC(C)C)C(=O)N[C@@H](CC(C)C)C(=O)N[C@@H](CCC(N)=O)C(=O)N[C@@H](CC(=O)O)C(=O)N[C@H](C(N)=O)C(C)C)NC(=O)[C@H](CCCNC(=N)N)NC(=O)[C@H](CC(C)C)NC(=O)[C@H](Cc2c[nH]c3ccccc23)NC1=O)C(C)C) | significantly more effective at inhibiting ^3H-thymidine incorporation than hPTH-(1-34)
